From patent publication US6716582B2 (priority 2000, dated 2004)

Columns and labels:
[1] = tested on: uhpT-luxCDABE gene fusion (strain DPD3228); assay: verification of uhpT-lux upregulation by limonene; assay type: cell-based, E. coli; conditions: late response, maximal at highest concentration, detected at 40% or 20% of saturation
Procedure: E. coli strain DPD3228 is identical to lux-a.pk034.b9 the strain containing the uhpT-luxCDABE gene fusion. This strain was grown overnight at 37° C. in LB medium containing 100 μg/ml ampicillin and diluted the following day into LB medium and grown to log phase at 37° C. 20 μl aliquots of this culture were added to 80 μl of LB medium saturated with limonene, to 80 μl of a series of two fold dilutions into LB medium of LB saturated with limonene, and to 80 μl of LB medium. Light production was measured in a Luminoskan Ascent (Labsystems) microplate luminometer at 37° C. […] Similar to the initial LuxArray observations, a late response to the presence of limonene was observed. This response was maximal at the highest concentration of limonene tested, but was also detected when limonene was present at 40% or 20% of saturating amounts in LB medium.

[2] = tested on: LuxArray 1.04 luxCDABE gene fusions; assay: LuxArray 1.04 limonene stress in liquid culture; assay type: cell-based, E. coli; conditions: for upregulation of gene fusion: 80% saturated limonene
Procedure: Microplates from −80° C. containing the LuxArray 1.04 E. coli strains were thawed and used to inoculate 100 μl LB medium supplemented with 100 μg/ml ampicillin in Costar#3595 flat bottomed 96-well microplates. Following overnight growth at 37° C., the plates were visually examined and any wells with little or no turbidity were recorded. Then these cultures were diluted by transfer of 15 μl to 135 μl LB medium in Costar #3595, flat bottom 96-well microplates and were moderately swirl shaken on an IKA Schuttler MTS 4 shaker at setting 400 for two hrs at 37° C. in a humidified box. Twenty μl of each these actively growing cultures were transferred to the corresponding well in sets of three microplates, one containing 80 μl of LB medium, another containing 80 μl of LB medium saturated with limonene at room temperature, and the third containing 40 μl of LB medium saturated with limonene and 40 μl of LB medium. An initial (zero time) reading was taken using an MLX microplate luminometer (Dynex) pre-warmed to 37° C. Then the plates were placed at 37° C. without shaking. Additional bioluminescent measurements were taken at 45, 90, and 135 minutes. To limit the number of microplates handled each day, LuxArray 1.04 microplates 1 to 5, microplates 6 to 10, microplates 11 to 15, and microplates […] were used on each of four different days.
The data were normalized to correct for growth inhibition caused by limonene on the basis of each individual day that data was collected. The bioluminescence (RLU) of each individual culture for each day of experimentation under each of the three conditions, were added to determine the daily array total RLU. These were used to find a daily normalization factor (DNF) as follows:
DNF=Daily total array signal (time zero, LB control)/Daily total array signal (time x, condition y)
Each measurement from the corresponding day, time point, and condition was multiplied by DNF to yield a normalized signal. The data from wells that were scored to have little or no growth were not used in further analysis. The normalized data were analyzed with GeneSpring (Silicon Genetics) software, which averaged the signal from each of the duplicate cultures for each reporter gene fusion.
Thus, patterns of gene expression from the 80% saturated limonene in LB medium were further examined. […] These lists were examined and gene fusions with very low normalized RLU values (<0.012 RLU) at all conditions were eliminated. […] The designation of “>2×” is given for upregulation while “*” is listed if the expression was less than 2 fold increased. At 45 minutes, the expression of fourteen gene fusions was increased; none of these was increased 3 fold or higher. At 90 minutes, 37 gene fusions were induced; these included all but one of the gene fusions observed at 45 minutes. […] These were fusions of the luxCDABE reporter to the promoter regions of uhpT (3.8×), nirB (3.7×) and narK (3.6×). At 135 minutes, 39 gene fusions were induced, which included 13 fusions not observed at 45 or 90 minutes.

Question: For `C=C(C)[C@H]1CC=C(C)CC1` [limonene], which upregulation of bioluminescence [1] is on record?
Answer: The upregulation of bioluminescence was “upregulation of bioluminescence from this strain by limonene was confirmed”.

Question: And the “upregulation of gene fusion” value ([2]; katG-lux, 135 minutes)?
Answer: The value was 4.1 ×.

Question: What about the “upregulation of gene fusion” value ([2]; narK-lux, 90 minutes) of the same molecule?
Answer: Its value is 3.6 ×.

Question: What about the “upregulation of gene fusion” value ([2]; nirB-lux, 90 minutes) of the same molecule?
Answer: The value was 3.7 ×.

Question: What about the “upregulation of gene fusion” value ([2]; nirB-lux, 135 minutes) of the same molecule?
Answer: The value was 4.1 ×.

Question: What about the “upregulation of gene fusion” value ([2]; uhpT-lux, 90 minutes) of the same molecule?
Answer: Its value is 3.8 ×.

Question: What about the “upregulation of gene fusion” value ([2]; uhpT-lux, 135 minutes) of the same molecule?
Answer: Its value is 7.7 ×.

Question: And the “upregulation of gene expression” value ([2]; whole LuxArray 1.04, 40% saturated limonene in LB medium)?
Answer: Its value is “little to no upregulation”.
